In the supplement of paper PMC10307832:

Assays:
Assay in all cases: relative viability (nuclei count vs DMSO), 5 days (fraction); higher = more cells survive
[1] = compound: CC1=CC(=CC=C1)NC2=NC(=CS2)C3=CC=NC=C3 + CC(C)C[C@H](NC(=O)[C@H](Cc1ccccc1)NC(=O)c1cnccn1)B(O)O [Bortezomib] (partner 0.002 µM)
Procedure, shortened: (§1)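 Cells from lung cancer lines were seeded into 1536-well plates and, one day later, dosed by pin tool. Treatments were either a single drug or a fixed dose of an anchor drug with five library-drug doses (not always all listed) in √10 steps. After 5 days, nuclei were stained in a one-step fixation (final 0.05% Triton X-100, 1% formaldehyde, 1 ug/ml Hoechst) and counted on 4× images, and relative viability is the treated-to-vehicle nuclei ratio, as the median of duplicate plates.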

[2] = compound: CC1=CC(=CC=C1)NC2=NC(=CS2)C3=CC=NC=C3 + Cc1nc(Nc2ncc(C(=O)Nc3c(C)cccc3Cl)s2)cc(N2CCN(CCO)CC2)n1 [Dasatinib] (partner 0.075 µM)
Procedure, shortened: as §1

Masitinib + Trametinib = compound: Cc1ccc(NC(=O)c2ccc(CN3CCN(C)CC3)cc2)cc1Nc1nc(-c2cccnc2)cs1 [Masitinib] + CC(=O)Nc1cccc(-n2c(=O)n(C3CC3)c(=O)c3c(Nc4ccc(I)cc4F)n(C)c(=O)c(C)c32)c1 [Trametinib] (partner 0.02 µM)
Procedure, shortened: as §1

Masitinib + Foretinib = compound: Cc1ccc(NC(=O)c2ccc(CN3CCN(C)CC3)cc2)cc1Nc1nc(-c2cccnc2)cs1 [Masitinib] + COc1cc2c(Oc3ccc(NC(=O)C4(C(=O)Nc5ccc(F)cc5)CC4)cc3F)ccnc2cc1OCCCN1CCOCC1 [Foretinib] (partner 0.25 µM)
Procedure, shortened: as §1

Row | Cell Line | relative viability ([1]; first compound 0.08 µM) | relative viability ([1]; first compound 0.253 µM) | relative viability ([1]; first compound 0.8 µM) | relative viability ([1]; first compound 2.53 µM) | relative viability ([1]; first compound 8 µM) | relative viability ([2]; first compound 0.08 µM) | relative viability ([2]; first compound 0.253 µM) | relative viability ([2]; first compound 0.8 µM) | relative viability ([2]; first compound 2.53 µM) | relative viability ([2]; first compound 8 µM) | relative viability (Masitinib + Trametinib; first compound 0.01 µM) | relative viability (Masitinib + Trametinib; first compound 0.03162 µM) | relative viability (Masitinib + Trametinib; first compound 0.1 µM) | relative viability (Masitinib + Trametinib; first compound 0.3162 µM) | relative viability (Masitinib + Trametinib; first compound 1 µM) | relative viability (Masitinib + Foretinib; first compound 0.01 µM) | relative viability (Masitinib + Foretinib; first compound 0.03162 µM) | relative viability (Masitinib + Foretinib; first compound 0.1 µM) | relative viability (Masitinib + Foretinib; first compound 0.3162 µM) | relative viability (Masitinib + Foretinib; first compound 1 µM)
1 | NCI-H441 | 0.423 | 0.361 | 0.427 | 0.53 | 0.136 | 0.584 | 0.482 | 0.834 | 0.585 | 0.585 | 0.5 | 0.488 | 0.547 | 0.336 | 0.397 | 0.909 | 0.976 | 1.12 | 1.48 | 0.691
2 | NCI-H322M | 1.18 | 1.29 | 1.14 | 1.22 | 1.03 | 0.244 | 0.222 | 0.257 | 0.264 | 0.259 | 0.576 | 0.465 | 0.519 | 0.637 | 0.566 | 0.973 | 0.896 | 1.02 | 0.935 | 0.948
3 | LU99A | – | 1.09 | 1.15 | 1.06 | 1.05 | 0.543 | 0.525 | 0.521 | 0.517 | 0.479 | 0.619 | 0.597 | 0.624 | 0.559 | 0.503 | 0.901 | 0.823 | 0.877 | 1.01 | 0.822
4 | COR-L23 | 1.01 | 0.913 | 0.779 | 0.924 | 0.595 | 0.479 | 0.511 | 0.389 | 0.338 | 0.402 | 0.543 | 0.641 | 0.673 | 0.686 | 0.571 | 0.935 | 1.05 | 1.1 | 1.02 | 0.92
5 | NCI-H2126 | 1.06 | 1.04 | 1.16 | 0.989 | 0.91 | 0.533 | 0.433 | 0.505 | 0.466 | 0.4 | 0.523 | 0.54 | 0.562 | 0.507 | 0.534 | 1.08 | 0.97 | 1.08 | 1.35 | 1.02
6 | LC-2-ad | 0.884 | 0.94 | 1.13 | 0.873 | 0.875 | 0.522 | – | 0.59 | 0.431 | 0.478 | 0.92 | 0.917 | 0.911 | 0.941 | 0.93 | 0.87 | 0.859 | 1.09 | 0.847 | 0.825
7 | NCI-H1975 | 0.361 | 0.352 | 0.374 | 0.267 | 0.171 | 0.366 | 0.353 | 0.295 | 0.22 | 0.165 | 0.302 | 0.364 | 0.374 | 0.237 | 0.323 | 1.02 | 0.96 | 0.924 | – | 0.998
8 | NCI-H2085 | 1.02 | 1.07 | 1.06 | 0.94 | 0.574 | 0.241 | 0.243 | 0.241 | 0.186 | 0.243 | 0.583 | 0.534 | 0.556 | 0.514 | 0.524 | 0.851 | 0.91 | 0.919 | 1.23 | 0.878
9 | COR-L 105 | 0.7 | 0.804 | 0.734 | 0.563 | 0.456 | 0.284 | 0.289 | 0.349 | 0.279 | 0.306 | 0.475 | 0.438 | 0.413 | 0.411 | 0.388 | 1.01 | 0.906 | 1.06 | 0.901 | 0.726
10 | SK-LU-1 | 0.905 | 1.07 | 0.884 | 1.3 | 1.19 | 0.144 | 0.201 | – | 0.219 | 0.224 | 0.513 | 0.406 | 0.534 | 0.555 | 0.464 | 0.803 | 0.815 | 0.95 | 0.945 | 0.931
11 | PC-3 [JPC-3] | 0.743 | 0.821 | 0.577 | 0.636 | 0.361 | 0.974 | 0.95 | 0.881 | 0.87 | 0.939 | 0.723 | 0.651 | 0.733 | 0.576 | 0.616 | 1.03 | 0.98 | 1.02 | 1.02 | 1
12 | NCI-H661 | 0.864 | 0.862 | 0.759 | 0.653 | 0.706 | 0.686 | 0.862 | 0.892 | 0.774 | 0.808 | 0.493 | 0.486 | 0.563 | 0.591 | 0.564 | 0.945 | 1.05 | 1.04 | 0.95 | 0.965
13 | NCI-H2087 | 0.708 | 0.825 | 0.844 | 0.666 | 0.3 | 0.67 | 0.804 | 0.742 | 0.778 | 0.796 | 0.176 | 0.213 | 0.214 | 0.153 | 0.178 | 1.26 | 0.907 | 1.18 | 1.11 | 1.17
14 | NCI-H1755 | 0.937 | 0.886 | 0.832 | 0.819 | 0.572 | 0.331 | 0.417 | 0.355 | 0.185 | 0.321 | 0.633 | 0.83 | 0.788 | 0.766 | 0.699 | – | 0.927 | 0.975 | 0.897 | 0.828
15 | NCI-H2228 | 0.892 | 0.761 | 0.771 | 0.925 | 0.714 | 0.402 | 0.605 | 0.468 | 0.433 | 0.445 | 0.385 | 0.381 | 0.405 | 0.482 | 0.529 | 0.672 | 0.763 | 0.838 | 0.861 | 0.777
16 | EMC-BAC-2 | 0.982 | 1.04 | 1.01 | 0.99 | 0.927 | 0.279 | 0.312 | 0.293 | 0.306 | 0.332 | 0.576 | – | 0.705 | 0.806 | 0.821 | 0.873 | 0.955 | 1.02 | 0.956 | 1.02
17 | NCI-H2009 | 0.829 | 0.894 | 1.04 | 1 | 0.724 | 0.249 | 0.308 | 0.264 | 0.299 | 0.312 | 0.29 | 0.239 | 0.296 | 0.26 | 0.268 | 1.18 | 1.17 | 1.18 | 1.18 | 1.19
18 | NCI-H596 | 0.845 | 1.08 | 0.893 | 0.853 | 0.74 | 0.501 | 0.507 | 0.584 | 0.524 | 0.435 | 0.723 | 0.691 | 0.789 | 0.678 | 0.732 | 0.859 | 0.9 | 0.947 | 0.869 | 0.891
19 | NCI-H650 | 0.76 | 0.72 | 1.09 | – | 0.857 | 0.366 | 0.413 | 0.447 | 0.376 | 0.475 | 1.05 | 1.1 | 1.03 | 1.28 | 0.99 | 0.978 | 0.966 | 1.14 | 0.977 | 1.01
20 | NCI-H1915 | 0.976 | 0.973 | 0.944 | 0.846 | 0.762 | 0.282 | 0.328 | 0.289 | 0.318 | 0.328 | – | 0.635 | – | 0.302 | 0.302 | – | 1.13 | – | 1.1 | 1.11
21 | SW 1573 | 1.06 | 0.954 | 1.03 | 1.09 | 0.807 | 0.612 | 0.369 | 0.612 | 0.603 | 0.432 | 0.666 | 0.603 | 0.551 | 0.542 | 0.581 | 0.765 | 0.974 | 0.97 | 0.784 | 0.865
22 | ChaGo-K-1 | 0.866 | 0.775 | 1.06 | 0.579 | 0.812 | 0.547 | 0.675 | 0.605 | 0.49 | 0.54 | 0.972 | 0.852 | 0.986 | 0.909 | 0.906 | 0.961 | 0.863 | 0.924 | 0.967 | 0.907
23 | NCI-H1355 | 1.08 | 1.02 | 0.991 | 0.465 | 0.716 | 0.399 | 0.463 | 0.341 | 0.386 | 0.375 | 0.439 | 0.35 | 0.497 | 0.329 | 0.468 | 0.914 | 0.797 | 1.04 | 0.758 | 0.968
24 | NCI-H1651 | 0.939 | 0.923 | 0.933 | 0.822 | 0.987 | 0.26 | 0.377 | 0.553 | 0.385 | 0.415 | 0.776 | 0.792 | 0.836 | 0.901 | 0.856 | 0.688 | 0.755 | 0.862 | 0.789 | 0.94
25 | NCI-H2023 | 0.899 | 0.873 | 0.959 | 0.949 | 0.543 | 0.456 | 0.427 | 0.434 | 0.348 | 0.338 | 0.509 | 0.448 | 0.531 | 0.518 | 0.549 | 0.786 | 0.721 | 0.745 | 0.836 | 0.73
26 | LOU-NH91 | 0.446 | 0.457 | 0.447 | 0.461 | 0.398 | 0.464 | 0.51 | 0.432 | 0.472 | 0.458 | 0.756 | 0.765 | 0.792 | 0.732 | 0.772 | 0.886 | 0.908 | 0.958 | 0.858 | 0.897
27 | NCI-H3122 | 1.03 | 1.07 | 1.06 | 0.996 | 1.03 | 0.78 | 0.821 | 1.05 | 0.819 | 0.77 | 0.26 | 0.243 | 0.24 | 0.267 | 0.168 | 0.89 | 1 | 1.05 | 1.01 | 0.887
